From ChEMBL document CHEMBL5226349, “Novel Antimicrobial 8-Hydroxyquinoline-Based Agents: Current Development, Structure-Activity Relationships, and Perspectives” (J Med Chem, 2021)
In brackets after ≈: the same amount, converted by molar mass.

Key:
[1] = target: Botulinum neurotoxin type A (Clostridium botulinum, UniProt P0DPI0); test: Inhibition of Botulinum neurotoxins/A
[2] = target: Botulinum neurotoxin type F (Clostridium botulinum, UniProt P30996); test: Inhibition of Botulinum neurotoxins/F
[3] = Inhibition of bacterial VIM-2; set-up: species or system Bacteria
[4] = Inhibition of bacterial New Delhi metallo-beta-lactamase 1; set-up: species or system Bacteria
[5] = system: Mycobacterium tuberculosis; test: Antibacterial activity against Mycobacterium tuberculosis; type: functional
[6] = system: Candida albicans; test: Antibiofilm activity against Candida albicans; type: functional
[7] = system: Candida albicans; test: Antifungal activity against Candida albicans; type: functional
[8] = system: Chlamydia trachomatis; test: Bactericidal activity against Chlamydia trachomatis; type: functional
[9] = Cytotoxicity against human HeLa cells; type: toxicity, cell-based
[10] = Inhibition of Aeromonas proteolytica aminopeptidase; set-up: species or system Vibrio proteolyticus
[11] = Inhibition of human zinc metalloprotease
[12] = Inhibition of Mycobacterium tuberculosis Zmp1
[13] = system: Aspergillus; test: Antifungal activity against Aspergillus; type: functional
[14] = system: Chlamydia; test: Antibacterial activity against Chlamydia; type: functional
[15] = system: Bacillus subtilis; test: Antibacterial activity against Bacillus subtilis; type: functional
[16] = system: Salmonella sp.; test: Antibacterial activity against Salmonella sp.; type: functional
[17] = Inhibition of Mycobacterium tuberculosis MetAP1c
[18] = Inhibition of Mycobacterium tuberculosis MetAP1a
[19] = system: Microsporum; test: Antifungal activity against Microsporum; type: functional
[20] = system: Trichophyton; test: Antifungal activity against Trichophyton; type: functional
[21] = system: Salmonella typhimurium; test: Antibacterial activity against Salmonella typhimurium; type: functional, Salmonella enterica subsp. enterica serovar Typhimurium; settings: Salmonella enterica
[22] = system: Enterococcus faecalis; test: Antibacterial activity against Enterococcus faecalis; type: functional
[23] = system: Shigella dysenteriae; test: Antibacterial activity against Shigella dysenteriae; type: functional
[24] = system: Enterococcus faecalis; test: Antibacterial activity against Enterococcus faecalis ATCC 33186; type: functional
[25] = system: Citrobacter freundii; test: Antibacterial activity against Citrobacter freundii; type: functional
[26] = system: Candida; test: Antifungal activity against Candida; type: functional
[27] = system: Enterococcus faecalis; test: Antibacterial activity against Enterococcus faecalis ATCC 29212; type: functional
[28] = system: Corynebacterium diphtheriae; test: Antibacterial activity against Corynebacterium diphtheriae NCTC 10356; type: functional
[29] = system: Staphylococcus aureus; test: Antibacterial activity against Staphylococcus aureus ATCC 29213; type: functional
[30] = system: Serratia marcescens; test: Antibacterial activity against Serratia marcescens ATCC 8100; type: functional
[31] = system: Aeromonas hydrophila; test: Antibacterial activity against Aeromonas hydrophila; type: functional
[32] = system: Klebsiella pneumoniae; test: Antibacterial activity against Klebsiella pneumoniae ATCC 700603; type: functional
[33] = system: Arthrodermataceae; test: […] activity against Arthrodermataceae; type: functional
[34] = system: Listeria monocytogenes; test: Antibacterial activity against Listeria monocytogenes; type: functional
[35] = system: Salmonella enterica; test: Antibacterial activity against Salmonella choleraesuis ATCC 10708; type: functional
[36] = system: Shewanella putrefaciens; test: Antibacterial activity against Shewanella putrefaciens ATCC 8071; type: functional
[37] = system: Micrococcus luteus; test: Antibacterial activity against Micrococcus luteus ATCC 10240; type: functional
[38] = system: Staphylococcus aureus; test: Antibacterial activity against Staphylococcus aureus ATCC 25923; type: functional
[39] = system: Bacillus subtilis; test: Antibacterial activity against Bacillus subtilis ATCC 6633; type: functional
[40] = system: Escherichia coli; test: Antibacterial activity against Escherichia coli ATCC 25922; type: functional
[41] = target: Methionine aminopeptidase 2 (Homo sapiens, UniProt P50579); test: Inhibition of human MetAP2
[42] = system: Salmonella enteritidis; test: Antibacterial activity against Salmonella enteritidis; type: functional, Salmonella enterica subsp. enterica serovar Enteritidis; settings: Salmonella enterica
[43] = system: Bacillus cereus; test: Antibacterial activity against Bacillus cereus; type: functional
[44] = system: Achromobacter xylosoxidans; test: Antibacterial activity against Achromobacter xylosoxidans ATCC 2706; type: functional
[45] = target: Methionine aminopeptidase 1 (Homo sapiens, UniProt P53582); test: Inhibition of human MetAP1
[46] = system: Morganella morganii; test: Antibacterial activity against Morganella morganii; type: functional
[47] = system: Staphylococcus epidermidis; test: Antibacterial activity against Staphylococcus epidermidis ATCC 12228; type: functional
[48] = system: Salmonella typhimurium; test: Antibacterial activity against Salmonella typhimurium ATCC 13311; type: functional, Salmonella enterica subsp. enterica serovar Typhimurium; settings: Salmonella enterica
[49] = system: Stutzerimonas stutzeri; test: Antibacterial activity against Pseudomonas stutzeri ATCC 17587; type: functional
[50] = system: Plesiomonas shigelloides; test: Antibacterial activity against Plesiomonas shigelloides; type: functional

Botulinum neurotoxin type F, sequence (P30996 1-436 limits assumed): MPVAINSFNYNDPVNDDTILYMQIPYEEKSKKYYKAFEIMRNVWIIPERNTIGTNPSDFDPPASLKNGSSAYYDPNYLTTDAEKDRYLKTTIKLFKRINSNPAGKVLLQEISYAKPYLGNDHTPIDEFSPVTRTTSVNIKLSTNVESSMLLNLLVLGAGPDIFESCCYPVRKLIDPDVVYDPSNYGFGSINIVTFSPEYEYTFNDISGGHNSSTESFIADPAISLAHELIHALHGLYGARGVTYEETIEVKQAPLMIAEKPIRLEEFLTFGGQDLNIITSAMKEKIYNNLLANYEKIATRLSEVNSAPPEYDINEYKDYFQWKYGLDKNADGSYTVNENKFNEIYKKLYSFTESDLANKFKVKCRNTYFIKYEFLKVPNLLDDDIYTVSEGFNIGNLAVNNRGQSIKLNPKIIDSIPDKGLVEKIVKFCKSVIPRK
Methionine aminopeptidase 2, sequence (P50579 whole entry): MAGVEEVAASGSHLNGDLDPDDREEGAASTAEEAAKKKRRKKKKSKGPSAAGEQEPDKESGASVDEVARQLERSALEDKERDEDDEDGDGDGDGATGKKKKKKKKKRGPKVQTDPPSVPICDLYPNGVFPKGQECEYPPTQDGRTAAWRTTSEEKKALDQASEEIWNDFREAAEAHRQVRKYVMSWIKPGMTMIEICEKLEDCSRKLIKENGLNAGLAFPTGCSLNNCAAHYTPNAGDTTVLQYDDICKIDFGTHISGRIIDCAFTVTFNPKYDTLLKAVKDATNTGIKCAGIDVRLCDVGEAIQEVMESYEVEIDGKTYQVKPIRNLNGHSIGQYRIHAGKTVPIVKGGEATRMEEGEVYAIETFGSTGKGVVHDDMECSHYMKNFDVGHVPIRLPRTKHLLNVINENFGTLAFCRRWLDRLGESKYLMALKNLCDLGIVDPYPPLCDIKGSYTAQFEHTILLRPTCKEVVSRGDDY
Botulinum neurotoxin type A, sequence (P0DPI0 2-448 limits assumed): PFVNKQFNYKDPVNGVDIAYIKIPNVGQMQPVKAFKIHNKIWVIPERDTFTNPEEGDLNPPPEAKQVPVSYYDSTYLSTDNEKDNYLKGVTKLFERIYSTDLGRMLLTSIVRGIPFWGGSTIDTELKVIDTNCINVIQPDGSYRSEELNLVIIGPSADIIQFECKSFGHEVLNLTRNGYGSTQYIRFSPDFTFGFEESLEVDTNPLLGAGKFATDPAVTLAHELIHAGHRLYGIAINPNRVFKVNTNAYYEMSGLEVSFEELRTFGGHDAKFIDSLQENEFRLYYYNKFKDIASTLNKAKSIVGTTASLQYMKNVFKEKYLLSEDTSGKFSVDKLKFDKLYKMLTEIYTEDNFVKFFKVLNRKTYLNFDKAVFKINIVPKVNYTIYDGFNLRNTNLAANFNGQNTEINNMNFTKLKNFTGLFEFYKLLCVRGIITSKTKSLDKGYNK

`O=S(=O)(NC(c1cccc(F)c1)c1cc(Cl)c2cccnc2c1O)c1ccccc1` (centres undefined) showed an IC50 [1] of 5.8 µM.
`Cc1ccnc(NC(c2ccccc2)c2ccc3cccnc3c2O)c1` (centres undefined) showed an IC50 [2] of 14.9 µM.
`O=C(O)c1ccc2cccnc2c1O` showed an IC50 [3] of 0.74 µM and an IC50 [4] of 0.76 µM.
`O=C(NNC(c1ccc2cccnc2c1O)c1c[nH]c2ccccc12)c1ccncc1` (centres undefined) gave an MIC [5] of 122 µM (≈ 50 µg/mL).
`CC1CC(C)CN(c2nc(Nc3ccc(C#N)c(C(F)(F)F)c3)nc(Oc3cccc4cccnc34)n2)C1` (centres undefined) showed an MIC [5] of 6 µM (≈ 3.12 µg/mL).
With `CC(=O)Oc1c(Br)cc(Br)c2ccc(C)nc12` the MIC [6] was 12.5 µM (≈ 4.49 µg/mL).
In the case of `O=C(O)c1ccc(O)c2ncccc12`, the MIC [7] is reported as 1250 µM (≈ 236 µg/mL).
Work on `O=C(O)c1cn(C2CC2)c2cc(N3CCNCC3)c(F)cc2c1=O` [CIPROFLOXACIN] yielded an MBC [8] of over 50 µM.
Molecule `Cc1ccc2[nH]c(-c3ccccc3)c(C(NNC(=O)c3ccncc3)c3ccc4cccnc4c3O)c2c1` (centres undefined) has an MIC [5] of 100 µM (≈ 50 µg/mL).
`CCOC(=O)c1cc2c(Br)cc(Br)c(O)c2nc1C` showed an IC50 [9] of over 100 µM.
Molecule `Cc1ccc2cccc(O)c2n1` [8-HYDROXY QUINALDINE] has a Ki [10] of over 100 µM.
With `O=C(NOCc1ccccc1)c1ccc2cccc(O)c2n1` the IC50 [11] was at least 1 µM and the IC50 [12] was 0.011 µM.
Molecule `CC(=O)N1CCN(c2nc(Nc3ccc(C#N)c(C(F)(F)F)c3)nc(Oc3cccc4cccnc34)n2)CC1` has an MIC [5] of 117 µM (≈ 62.5 µg/mL) and an MIC [13] of 9.8 µM (≈ 5.24 µg/mL).
For `Oc1ccc(Cl)c2cccnc12` [CLOXYQUIN], the Ki [10] was 0.16 µM.
Work on `O=C(O)c1ccc(NC(c2ccccc2)c2ccc3cccnc3c2O)cc1` (centres undefined) yielded an IC50 [2] of 30.5 µM.
`O=[N+]([O-])c1cc(CN2CCN(c3ccccc3)CC2)c(O)c2ncccc12` showed an MBC [14] of 25 µM (≈ 9.11 µg/mL).
Molecule `Cc1nc2[nH]nc(/N=N/c3ccc(O)c4ncccc34)c2c(C)c1Br` has an MIC [15] of 19.7 µM (≈ 7.81 µg/mL) and an MIC [16] of 4.91 µM (≈ 1.95 µg/mL).
In the case of `COc1cccc(/C=C/c2ccc3cccc(O)c3n2)c1`, the MIC [5] is reported as over 200 µM.
Work on `CONC(=O)c1ccc2cccc(O)c2n1` yielded an IC50 [12] of 0.115 µM.
Work on `COc1ccc(CNC(=O)c2ccc3ccc(C)nc3c2O)cc1` yielded an MIC [5] of over 500 µM.
For `CNS(=O)(=O)c1cc(Cl)c2cccnc2c1O`, the Ki [10] was over 100 µM.
With `Oc1cccc2ccc(/C=C/c3cccc(F)c3)nc12` the MIC [5] was 13 µM (≈ 3.45 µg/mL).
`Cc1ccc2ccc(C(=O)NCc3ccc(F)cc3)c(O)c2n1` gave an MIC [5] of over 500 µM.
`Clc1cc2c(c3ncccc13)OCN(C1CCCCC1)C2` gave an IC50 [17] of 3.76 µM and an IC50 [18] of 4.3 µM.
Work on `O=C(Nc1ccc(C(F)(F)F)cc1)c1ccc2cccc(O)c2n1` yielded an MIC [5] of 24 µM (≈ 7.97 µg/mL).
`Cc1ccc2ccc(C(=O)NCc3ccccc3)c(O)c2n1` showed an MIC [5] of over 500 µM.
For `COc1cc(OC)nc(Nc2ccc3cccnc3c2O)n1`, the MIC [19] was 3.35 µM (≈ 0.999 µg/mL) and the MIC [20] was 3.35 µM (≈ 0.999 µg/mL).
With `Cc1ccc(CNC(=O)c2ccc3ccc(C)nc3c2O)cc1` the MIC [5] was over 500 µM.
For `O=C(CSc1nnc(COc2cccc3cccnc23)n1-c1ccccc1)Nc1nc2cc([N+](=O)[O-])ccc2s1`, the MIC [21] was 13.7 µM (≈ 7.8 µg/mL) and the MIC [22] was 27.4 µM (≈ 15.6 µg/mL).
Work on `O=C(NNC(c1ccc2cccnc2c1O)c1c(-c2ccccc2)[nH]c2ccc(Cl)cc12)c1ccncc1` (centres undefined) yielded an MIC [5] of 24 µM (≈ 12.5 µg/mL).
For `NS(=O)(=O)c1cc(Cl)c2cccnc2c1O`, the Ki [10] was over 100 µM.
Work on `Oc1cccc2ccc(/C=C/c3ccccc3Cl)nc12` yielded an MIC [5] of 5.8 µM (≈ 1.63 µg/mL).
`Oc1c(I)cc(Cl)c2cccnc12` [CLIOQUINOL] showed an MIC [23] of over 26.2 µM, a Ki [10] of over 100 µM and an MIC [24] of 26.2 µM (≈ 8 µg/mL). It also gave an MIC [25] of over 26.2 µM, an MIC [26] of 0.206 µM (≈ 0.0629 µg/mL) and an MIC [27] of 26.2 µM (≈ 8 µg/mL). It also gave an MIC [28] of 26.2 µM (≈ 8 µg/mL), an MIC [29] of 26.2 µM (≈ 8 µg/mL) and an MIC [30] of over 26.2 µM. For the same molecule, the IC50 [17] was 11.2 µM, the MIC [31] was over 26.2 µM and the MIC [32] was over 26.2 µM. For the same molecule, the MIC [33] was 0.409 µM (≈ 0.125 µg/mL), the MIC [34] was 26.2 µM (≈ 8 µg/mL) and the MIC [35] was over 26.2 µM. It also gave an MIC [36] of over 26.2 µM, an MIC [37] of 26.2 µM (≈ 8 µg/mL) and an MIC [38] of 26.2 µM (≈ 8 µg/mL). The MIC [39] was 26.2 µM (≈ 8 µg/mL), the MIC [40] was over 26.2 µM and the IC50 [41] was 80.4 µM. The IC50 [18] was 9.25 µM, the MIC [42] was over 26.2 µM and the MIC [5] was 32.7 µM (≈ 10 µg/mL). The MIC [43] was 26.2 µM (≈ 8 µg/mL), the MIC [44] was over 26.2 µM and the IC50 [45] was 84.7 µM. For the same molecule, the MIC [46] was over 26.2 µM, the MIC [47] was 26.2 µM (≈ 8 µg/mL) and the MIC [48] was over 26.2 µM. It also gave an MIC [49] of over 26.2 µM and an MIC [50] of over 26.2 µM.
For `Oc1c(Cl)cc(Cl)c2ccc(/C=C/c3ccc(/C=C/c4ccc5c(Cl)cc(Cl)c(O)c5n4)cc3)nc12`, the MIC [5] was over 72.2 µM.
For `Oc1cccc2ccc(Nc3ccccc3)nc12`, the MIC [5] was over 20 µM.
For `O=C(NCCN1OCC(NC(=O)c2ccc3cccc(O)c3n2)C1=O)c1ccc2cccc(O)c2n1` (centres undefined), the MBC [8] was 5 µM (≈ 2.44 µg/mL).
